Reference: patent US20050009924A1 (priority 2003, published 2005)

Tests used:
[1] = tested on: transcriptional activity of hTERT; experiment: SEAP reporter assay of hTERT expression, PhTERT-SEAP (hTERT-BJ1); type: cell-based, human; details: PhTERT-SEAP (hTERT-BJ1)
Experimental: (§1) Secreted alkaine phosphatase was used as the reporter system to monitor the transcriptional activity of hTERT. Here, about […] each were grown in 96-well plates and incubated at 37° C. for 24 h and changed with fresh media. Varying amounts of drugs were added and cells were incubated for another 24 h. Culture media were collected and heated at 65° C. for 10 min to inactivate heat-labile phosphatases. An equal amount of SEAP buffer (2 M diethanolamine, 1 mM MgCl2, and 20 mM […]) was added to the media and p-nitrophenyl phosphate was added to a final concentration of 12 mM. Absorptions at 405 nm were taken, and the rate of absorption increase is determined.
(§2) Culture media were changed every 3 days. […] The stable clones were selected using G418.

[2] = tested on: transcriptional activity of hTERT; experiment: SEAP reporter assay of hTERT expression, PhTERT-SEAP (H1299); type: cell-based, human; details: PhTERT-SEAP(hTERT-H1299)
Experimental: as §1, §2

human hepatoma G2 cells = experiment: Cytotoxicity assay (XTT colorimetric), Hep G2; type: cell-based; details: 48 h of drug exposure
hTERT-BJ1 cells = experiment: MTT relative viability, PhTERT-SEAP (hTERT-BJ1) cells; details: PhTERT-SEAP (hTERT-BJ1)
Experimental: The tetrazolium reagent (MTT; 3-(4,5-di-methylthiazol)-2,5-diphenyl tetrazolium bromide, USB) was designed to yield a colored formazan upon metabolic reduction by viable cells. Approximately […] cells were plated onto each well of a 96-well plate and incubated in 5% CO2 at 37° C. for 24 h. To assess the in vitro cytotoxicity, each compound was dissolved in DMSO and prepared immediately before the experiments and was diluted into the complete medium before addition to cell cultures. Test compounds were then added to the culture medium for designated various concentrations. After 48 h, an amount of 25 μL of MTT was added to each well, and the samples were incubated at 37° C. for 4 h. A 100 μL solution of lysis buffer containing 20% SDS and 50% N,N-dimethylformamide was added to each well and incubated at 37° C. for another 16 h. The absorbency at 550 nm was measured using an ELISA reader.
Non small lung cancer cells H1299 (telomerase positive) were grown in RPMI 1640 media supplemented with 10% fetal bovine serum, 100 units/mL penicillin and 100 mg/mL streptomycin in a humidified atmosphere with 5% CO2 at 37° C. The hTERT immortalized hTERT-BJ1 (BD Biosciences Clontech)^39 were grown in DMEM media supplemented with 10% fetal calf serum, 100 units/mL penicillin and 100 mg/mL streptomycin, 1 mM sodium pyruvate, and 4 mM I-arginine in a humidified atmosphere with 5% CO2 at 37° C. Culture media were changed every 3 days. […] The stable clones derived from H1299 or hTERT-BJ1 were cultured using conditions that are similar to their parental cells.

rat glioma C6 cells = experiment: Cytotoxicity assay (XTT colorimetric), C6 cells; type: cell-based; details: 48 h of drug exposure
[3] = tested on: hepatitis B virus transfected hepatoma cell lines, HepG 2.2.15 cells; experiment: Cytotoxicity assay, 2.2.15 cells; type: cell-based, human; details: 48 h of drug exposure
[4] = tested on: non-small-cell lung cancer cells H1299; experiment: MTT relative viability, PhTERT-SEAP (H1299) cells; details: PhTERT-SEAP(hTERT-H1299)

O=C(Nc1ccc(NC(=O)c2ccc(Cl)cc2Cl)c2c1C(=O)c1ccccc1C2=O)c1ccc(Cl)cc1Cl [VI8, 1,4-Bis(2,4-dichlorobenzoylamido)-9,10-anthracenedione]
Relative SEAP activity (%) ([1]; 1.7 μM): 33 ± 11.2% | SEAP/vibility ([1]; 1.7 μM): 0.32 | Relative SEAP activity (%) ([1]; 17 μM): 25 ± 17.2% | SEAP/vibility ([1]; 17 μM): 0.26 | Relative SEAP activity (%) ([1]; 171 μM): 39 ± 12.8% | SEAP/vibility ([1]; 171 μM): 0.52 | Relative SEAP activity (%) ([2]; 1.7 μM): 85 ± 7.9% | SEAP/vibility ([2]; 1.7 μM): 0.80 | Relative SEAP activity (%) ([2]; 17 μM): 84 ± 7.1% | SEAP/vibility ([2]; 17 μM): 0.89 | Relative SEAP activity (%) ([2]; 171 μM): 87 ± 2.6% | SEAP/vibility ([2]; 171 μM): 1.06 | IC50 (human hepatoma G2 cells): > 20 µM | Relative MTT viability (%) (hTERT-BJ1 cells; 1.7 μM): 102 ± 3.4% | Relative MTT viability (%) (hTERT-BJ1 cells; 17 μM): 98 ± 7.2% | Relative MTT viability (%) (hTERT-BJ1 cells; 171 μM): 76 ± 4.8% | IC50 (rat glioma C6 cells): > 20 µM | IC50 [3]: > 20 µM | Relative MTT viability (%) ([4]; 1.7 μM): 106 ± 3.9% | Relative MTT viability (%) ([4]; 17 μM): 95 ± 1.3% | Relative MTT viability (%) ([4]; 171 μM): 83 ± 1.2%

O=C(Nc1ccc(NC(=O)c2ccccc2F)c2c1C(=O)c1ccccc1C2=O)c1ccccc1F [VI10, 1,4-Bis(2-fluorobenzoylamido)-9,10-anthracenedione]
Relative SEAP activity (%) ([1]; 2.0 μM): 95 ± 8.9% | SEAP/vibility ([1]; 2.0 μM): 0.90 | Relative SEAP activity (%) ([1]; 20 μM): 96 ± 9.8% | SEAP/vibility ([1]; 20 μM): 0.96 | Relative SEAP activity (%) ([1]; 207 μM): 79 ± 7.4% | SEAP/vibility ([1]; 207 μM): 0.92 | Relative SEAP activity (%) ([2]; 2.0 μM): 105 ± 7.8% | SEAP/vibility ([2]; 2.0 μM): 0.91 | Relative SEAP activity (%) ([2]; 20 μM): 107 ± 11.9% | SEAP/vibility ([2]; 20 μM): 1.03 | Relative SEAP activity (%) ([2]; 207 μM): 103 ± 14.4% | SEAP/vibility ([2]; 207 μM): 1.34 | IC50 (human hepatoma G2 cells): > 20 µM | Relative MTT viability (%) (hTERT-BJ1 cells; 2.0 μM): 106 ± 6.5% | Relative MTT viability (%) (hTERT-BJ1 cells; 20 μM): 105 ± 8.5% | Relative MTT viability (%) (hTERT-BJ1 cells; 207 μM): 86 ± 7.3% | IC50 (rat glioma C6 cells): > 20 µM | IC50 [3]: > 20 µM | Relative MTT viability (%) ([4]; 2.0 μM): 116 ± 2.4% | Relative MTT viability (%) ([4]; 20 μM): 104 ± 6.1% | Relative MTT viability (%) ([4]; 207 μM): 77 ± 2.6%

O=C(Nc1ccc(NC(=O)c2ccccc2[N+](=O)[O-])c2c1C(=O)c1ccccc1C2=O)c1ccccc1[N+](=O)[O-] [VI11, 1,4-Bis(2-nitrobenzoylamido)-9,10-anthracenedione]
Relative SEAP activity (%) ([1]; 1.8 μM): 102 ± 33.4% | SEAP/vibility ([1]; 1.8 μM): 0.92 | Relative SEAP activity (%) ([1]; 18 μM): 122 ± 19.5% | SEAP/vibility ([1]; 18 μM): 1.14 | Relative SEAP activity (%) ([1]; 186 μM): 114 ± 28.1% | SEAP/vibility ([1]; 186 μM): 1.15 | Relative SEAP activity (%) ([2]; 1.8 μM): 105 ± 4.3% | SEAP/vibility ([2]; 1.8 μM): 1.00 | Relative SEAP activity (%) ([2]; 18 μM): 107 ± 7.9% | SEAP/vibility ([2]; 18 μM): 1.06 | Relative SEAP activity (%) ([2]; 186 μM): 94 ± 8.0% | SEAP/vibility ([2]; 186 μM): 1.10 | IC50 (human hepatoma G2 cells): > 20 µM | Relative MTT viability (%) (hTERT-BJ1 cells; 1.8 μM): 110 ± 4.1% | Relative MTT viability (%) (hTERT-BJ1 cells; 18 μM): 107 ± 6.3% | Relative MTT viability (%) (hTERT-BJ1 cells; 186 μM): 99 ± 3.2% | IC50 (rat glioma C6 cells): > 20 µM | IC50 [3]: > 20 µM | Relative MTT viability (%) ([4]; 1.8 μM): 104 ± 6.3% | Relative MTT viability (%) ([4]; 18 μM): 101 ± 4.1% | Relative MTT viability (%) ([4]; 186 μM): 86 ± 5.3%

O=C(Nc1ccc(NC(=O)c2cccc(F)c2)c2c1C(=O)c1ccccc1C2=O)c1cccc(F)c1 [VI12, 1,4-Bis(3-fluorobenzoylamido)-9,10-anthracenedione]
Relative SEAP activity (%) ([1]; 2.0 μM): 107 ± 11.9% | SEAP/vibility ([1]; 2.0 μM): 1.05 | Relative SEAP activity (%) ([1]; 20 μM): 108 ± 15.5% | SEAP/vibility ([1]; 20 μM): 1.11 | Relative SEAP activity (%) ([1]; 207 μM): 95 ± 13.9% | SEAP/vibility ([1]; 207 μM): 1.12 | Relative SEAP activity (%) ([2]; 2.0 μM): 102 ± 2.9% | SEAP/vibility ([2]; 2.0 μM): 0.98 | Relative SEAP activity (%) ([2]; 20 μM): 110 ± 6.5% | SEAP/vibility ([2]; 20 μM): 1.14 | Relative SEAP activity (%) ([2]; 207 μM): 106 ± 9.4% | SEAP/vibility ([2]; 207 μM): 1.59 | IC50 (human hepatoma G2 cells): > 20 µM | Relative MTT viability (%) (hTERT-BJ1 cells; 2.0 μM): 102 ± 1.5% | Relative MTT viability (%) (hTERT-BJ1 cells; 20 μM): 97 ± 2.9% | Relative MTT viability (%) (hTERT-BJ1 cells; 207 μM): 85 ± 2.6% | IC50 (rat glioma C6 cells): > 20 µM | IC50 [3]: > 20 µM | Relative MTT viability (%) ([4]; 2.0 μM): 105 ± 6.8% | Relative MTT viability (%) ([4]; 20 μM): 96 ± 7.4% | Relative MTT viability (%) ([4]; 207 μM): 66 ± 5.5%
